# Source: US5976523A, “Method for healing compromised tissues using pyrimidine derivatives” (Mitsui Pharmaceuticals, Inc., priority 1995, dated 1999)
# Counter-ions that a name gives are not always drawn.
# Columns and labels:
# [1] = tested on: fractured tibia; assay: Tibia fracture model, histology on the 7th day; format: in vivo, Wistar rat; conditions: 5 mg/kg i.p. once a day, 7 days
# Experimental: The tibia of each Wistar (body weight: 260-330 g) was broken manually and stabilized in situ by using a 22G syringe needle as an intramedullary nail under anesthesia by pentobarbital. The rats were divided into two groups. To one of the groups, 2-piperazino-6-methyl-5-oxo-5,6-dihydro(7H)pyrro[3,4-d]pyrimidine maleate was intraperitoneally administered at 5 mg/kg once a day everyday for 7 days from immediately after the fracture. The other group was used as a control group, to which physiological saline was administered likewise. The rats in both the groups were sacrificed on the 7th day. The broken tibia of each rat was […], embedded in paraffin and then subjected to HE staining. The texture of the fractured site was pathohistologically examined. In the control group, proliferation mesenchymal cells, which were considered to be derived from periosteal cells, and membranous ossification of an osteoid tissue were observed centering around the fractured site on the 7th day after the fracture. Further, honeycomb-shaped proliferation of chondrocytes in a small number associated with formation of a cartilage matrix was observed inside the mesenchymal cells.
# [2] = tested on: skin or muscle cut; assay: Skin/muscle cut-suture rat model; format: in vivo; conditions: scanning electron microscope; indicative of the possibility
# Excerpt: As a feature specific to this model, collagen fibers form a plate-like structure so that they cross at right angles with muscle fibers, and macrophages accumulate on the plate-like structure. This plate-like collagen is considered to serve in such a way that it prevents detachment or fraying of both cut ends of muscle fibers and assists formation of an anastomosis.
# [3] = tested on: bone defect (tibia); assay: Rat bone defect model, formation of hyaline cartilage matrix; format: in vivo; conditions: bFGF (0.5 μg) + compound (0.5 mg) pellet, 7th day, vs bFGF pellet
# Excerpt: Action of 2-piperazino-6-methyl-5-oxo-5,6-dihydro(7H)pyrro[3,4-d]pyrimidinemaleate on in vivo chondrogenesis was studied in detail by preparing a rat bone defect model which permits observation of bFGF-derived formation of a hyaline cartilage matrix. Embedment of a bFGF-containing pellet in a bone defect of the model permits easy observation of formation of a hyaline cartilage matrix under the periosteum around the bone defect. Rats were divided into three groups. The rats in one of the groups were each embedded in a formed bone defect (diameter: 2.6 mm) thereof with a hydroxyethyl methacrylate pellet (10 mg) which contained bFGF (0.5 μg). The rats in another one of the groups were each embedded likewise with a hydroxyethyl methacrylate pellet (10 mg) which contained bFGF (0.5 μg) and the invention compound (0.5 mg). The rats in the remaining group, that is, a control group were each embedded similarly with a pellet which contained physiological saline. After the rats in all the three groups were sacrificed seven days later, action of bFGF or the invention compound on the process of chondrogenesis on enchondral ossification around the bone defect was investigated. On the 7th day after the formation of the bone defect, the tibia of each rat was histologically examined around the bone defect.
smiles,measurement,setting,value
"CN1Cc2nc(N3CCNCC3)ncc2C1=O [Compound B, 2-piperazino-6-methyl-5-oxo-5,6-dihydro(7H)pyrro[3,4-d]pyrimidine maleate]",proliferation of mesenchymal cells at the fractured site,[1],marked proliferation of mesenchymal cells
same,proliferation of chondrocytes associated with formation of a hyaline cartilage matrix enchondral ossification,[1]; vs control group,in a quantity apparently much greater than that of the control group
same,accumulation of macrophages,[2],effectively acts for the promotion of the formation of such plate-like collagen and the accumulation of macrophages
same,formation of plate-like collagen,[2],effectively acts for the promotion of the formation of such plate-like collagen
same,formation of a hyaline cartilage matrix,[3],in an amount apparently larger than that formed in the group embedded with the bFGF-containing pellet
